Measured values: patent US8106055B2, “Substituted amide compounds” (Gruenenthal GmbH, priority 2007, dated 2012)

Target: T1, human μ opiate receptor (Homo sapiens, UniProt P35372)
T1 construct: purchased PerkinElmer Life Sciences, Zaventem, Belgium RB-HOM; host or cells: CHO-K1 cells (membrane preparation)
Assay: Affinity for the human μ opiate receptor ([3H]-naloxone displacement, CHO-K1 receptor membrane preparation, SPA)
Format: binding
Details: test concentration of 1 μM; read-out: μ (binding on the μ opioid receptor, % inhibition)
Summary of the method: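 CHO-K1 membranes expressing human μ receptor incubated 90 min at room temperature with 1 nmol/l [3H]-naloxone and WGA-SPA beads in 50 mmol/l Tris-HCl, 0.06% BSA; 100 μmol/l naloxone defines non-specific binding. Values are % inhibition of specific binding at 1 μM; IC50 converted to Ki by Cheng-Prusoff.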

T1 sequence (P35372 whole entry): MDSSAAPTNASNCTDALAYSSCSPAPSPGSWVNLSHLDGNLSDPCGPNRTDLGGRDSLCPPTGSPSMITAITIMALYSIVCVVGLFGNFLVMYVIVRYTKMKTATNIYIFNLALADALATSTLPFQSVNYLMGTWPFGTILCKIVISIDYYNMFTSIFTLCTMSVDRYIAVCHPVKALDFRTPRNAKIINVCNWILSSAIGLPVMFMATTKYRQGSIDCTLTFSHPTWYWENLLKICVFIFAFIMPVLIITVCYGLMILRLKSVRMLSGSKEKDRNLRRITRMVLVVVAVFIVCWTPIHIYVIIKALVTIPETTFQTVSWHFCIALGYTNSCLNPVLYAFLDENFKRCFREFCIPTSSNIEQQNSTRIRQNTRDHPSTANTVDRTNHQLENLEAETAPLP

Work on `CN(C)C(c1ccccc1)C1CCC(CNC(=O)COC2CCCCC2N(C)S(=O)(=O)c2ccc(Cl)c(Cl)c2)CC1` (stereo not shown) [Example 78, 2-(2-(3,4-dichloro-N-methylphenylsulfonamido)cyclohexyloxy)-N-((4-((dimethylamino)(phenyl)methyl)cyclohexyl)methyl)acetamide] yielded an inhibition at 1 µM of 95%.
